Measurements: patent US11446352B2, “Compositions and methods for inhibiting tumor-induced immune suppression” (priority 2017, dated 2022)
pIC50: −log10 of the molar value. Entries after “also recorded” stand apart in the source; their conditions may differ.

Columns and labels:
E0771 tumors [1] = assay: E0771 syngeneic tumor model in C57BL/6 immunocompetent mice; type: in vivo; conditions: for anti-tumor activity (tumor volume): C57BL/6, 10 mg/kg every other day
Description: (§1) 50,000 E0771 cells were surgically implanted in mammary fad pad of 10 C57BL/6 immunocompetent mice and 10 immunocompromised nude mice. 12 days after surgery, B6 and nude mice were divided into two groups each. the EnnA group was injected with 10 mg/kg of EnnA every other day, and the control group received a mixture of 15% DMSO and 20% cremophor in PBS.
100,000 E0771 cells were surgically implanted in mammary fat pad of 20 mice. Ten days after surgery, mice were divided into two groups: the EnnA group was injected with 10 mg/kg of EnnA every other day, and the control group received a mixture of 15% DMSO and 20% cremophor in PBS.

[2] = system: Hsp90β on the surface of E0771 and AT3 cells; assay: FACS analysis of Hsp90β expression on the cell surface; type: cell-based, murine; conditions: in vitro (E0771, AT3 cell culture) and in vivo (E0771 tumors)
Text: (§2) FIGS. 2I-2K show FACS analysis of Hsp90β expression on the cell surface of E0771 cells treated with DMSO or EnnA. FIGS. 2L-2N show FACS analysis of the ratio of Hsp90α to Hsp90β expression on the cell surface of E0771 cells treated with DMSO or EnnA. FIGS. 2O-2Q show FACS analysis of Hsp90α expression on the cell surface of E0771 cells treated with DMSO or EnnA. FIG. 2R is a bar graph showing expression of Hsp90β on the surface of AT3 cells treated with DMSO or EnnA. FIG. 2S is a bar graph showing expression of Hsp90α on the surface of AT3 cells treated with DMSO or EnnA. FIGS. 2T-2X show FACS analysis of Hsp90β expression on the surface of E0771 tumor cells treated with mIgG, DMSO, or EnnA.

E0771 tumors [3] = assay: E0771 tumor model: EnnA versus 17-AAG and combinations with CPA or anti-CD8; type: in vivo, mice
Description: Groups of mice (n=10) were implanted with 50,000 E0771 cells. When tumors were about 150 mm3 in volume (10 days post-implantation), mice were injected every other day with DMSO, EnnA (10 mg/Kg) or 17-AAG (10 mg/Kg). Two extra groups were made. In one group, EnnA was combined with one dose (150 mg/Kg) of cyclophosphamide (CPA) on day 14. In the other EnnA was combined with anti-CD8 antibody (250 μg/mouse) injected on day 18 and 22.

E0771 tumors [4] = assay: E0771 tumor model in immunocompromised nude mice; type: in vivo; conditions: 10 mg/kg every other day
Description: as §1

[5] = system: murine breast cancer cells; assay: qPCR analysis of mRNA level of cytokines, chemokines, PDL1 and IDO; type: cell-based
Description: (§3) FIG. 3A-3B are autoradiographs of a Western blot showing expression of the indicated proteins in control (left lane) and 0.5 μM EnnA-treated (right lane) E0771 (FIG. 3A) and AT3 (FIG. 3B) cells. FIG. 3C is a graph showing FACS analysis of PD-L1 level in AT3 cells. FIGS. 3D-3K are graphs showing qPCR analysis of the mRNA level of cytokines TNFa (FIG. 3D), IL-6 (FIG. 3E), TGFb1 (FIG. 3F) and IL-10 (FIG. 3G), the chemokines S100a9 (FIG. 3J) and CCL3 (FIG. 3K), as well as PDL1 (FIG. 3H) and IDO (FIG. 3I). FIGS. 3L-3Q are micrographs of HEK293 cells transiently transfected with GFP-IDO fusion protein expressing or GFP alone plasmids for 24 h. Cells were then treated with 5 μM EnnA for 6 h and analyzed for green fluorescence and bright light. FIG. 3R is a line graph of μg/ml of tryptophan and its IDO-mediated product kynurenine using the previously reported HPLC-based assay.

E0771 cells = assay: MTT cell proliferation assay; type: cell-based, murine; conditions: E0771, in vitro, 72 h
Text: as §2
(§4) The mechanism of action of EnnA appears to be different from that of 17-AAG. […] Further studies studies using murine breast cancer cells lines have shown that EnnA kills E0771, AT3, EMT6 and 4T1 in vitro (FIG. 2A-2D).

EMT6 cells = assay: MTT cell proliferation assay; type: cell-based, murine; conditions: EMT6, in vitro, 72 h
Text: as §2, §4

AT3 cells = assay: MTT cell proliferation assay; type: cell-based, murine; conditions: AT3, in vitro, 72 h
Text: as §2, §4

4T1 cells = assay: MTT cell proliferation assay; type: cell-based, murine; conditions: 4T1, in vitro, 72 h
Text: as §2, §4

E0771 tumors [6] = assay: re-challenge of cured mice with E0771 cells (immune memory); type: in vivo; conditions: EnnA/CPA-treated group re-challenged with 50,000 E0771 cells; tumors completely eliminated 10 days later
Text: FIG. 6A is a line graph of tumor volume (mm^3) versus days post implantation. FIG. 6B-6E are images of three representative mice from each indicated group at the end of the treatment. FIGS. 6F-6I are a panel of images of mice from the CPA+EnnA group monitored for tumor recurrence for two more months (3 months post implantation). No tumor recurrence was observed. They were re-challenged with 50,000 E0771 cells implanted in the opposite fat pad. Five Naïve mice were used as controls. Upper panels and lower show luciferase luminescence images of mice bearing tumors at 7 and 17 days after the second implantation, respectively.
The anti-tumor activity of EnnA involves both cytotoxicity and clearance by T cells. […] Indeed, EnnA/CPA-treated mice remained tumor-free for 2 months after the end of EnnA treatment. To test whether the cured mice developed immune memory, […] 50,000 E0771 tumor cells.

IDO-GFP fusion protein = type: cell-based; conditions: HEK 293 cells
Description: as §3
Western blot analysis (FIG. 3A-3B) confirmed that EnnA destabilizes pAKT and reduces the protein expression of Hsp40 in E0771 and AT3. […] It also reduces the mRNA level of the chemokines S100a9 and CCL3 (FIG. 3J-3K). Importantly, EnnA reduces the mRNA and protein levels of the key immunological checkpoint component PDL-1 (FIG. 3H). Similar results were obtained with EMT6 (not shown). […]

E0771 murine cells = assay: autophagy in E0771 cells (fluorescence micrographs); type: cell-based

## CC[C@H](C)[C@H]1C(=O)O[C@H](C(C)C)C(=O)N(C)[C@@H]([C@@H](C)CC)C(=O)O[C@H](C(C)C)C(=O)N(C)[C@@H]([C@@H](C)CC)C(=O)O[C@H](C(C)C)C(=O)N1C [EnnA, Enniatin A]
E0771 tumors [1]; 10 mg/kg every other day
  effect on bodyweight or activities of mice: No significant effect
E0771 tumors [1]; Example 3: 50,000 E0771 cells
  anti-tumor activity (tumor volume): powerful anti-tumor activity
E0771 tumors [1]; Example 4: 100,000 E0771 cells
  anti-tumor activity (tumor volume): powerful anti-tumor activity
[2]
  exposure of Hsp90β to the surface of cancer cells: induces exposure
E0771 tumors [3]; E0771 tumor bearing mice, H&E lung sections
  breast cancer metastasis to the lungs: prevents
E0771 tumors [3]; EnnA 10 mg/Kg combined with one dose (150 mg/Kg) of cyclophosphamide (CPA) on day 14
  tumor outcome: completely cured
E0771 tumors [3]; EnnA combined with anti-CD8 antibody (250 μg/mouse) on day 18 and 22
  tumor growth after CD8 T cell depletion: restores an aggressive tumor growth; also recorded: rapid regrowth of tumors
E0771 tumors [3]; EnnA/CPA-treated mice
  time mice remained tumor-free after the end of EnnA treatment: 2 months
E0771 tumors [3]; each 10 mg/Kg every other day
  anti-tumor efficacy compared with 17-AAG: more efficacious than 17-AAG
E0771 tumors [4]
  anti-tumor activity (tumor volume): no significant anti-tumor activity
[5]
  level of anti-inflammatory IL-10 mRNA: reduces
  mRNA expression of IL-6: significant increase
  mRNA expression of TGFβ: significant increase
  mRNA expression of TNFα: significant increase
  mRNA expression of indolamine 2,3 dioxygenase: highly increased
  mRNA level of chemokine CCL3: reduces
  mRNA level of chemokine S100a9: reduces
[5]; Western blot / FACS
  mRNA and protein levels of PDL-1: reduces
E0771 cells
  pIC50: 5.00 to 5.30
EMT6 cells
  pIC50: ~5.60
AT3 cells
  pIC50: 5.00 to 5.30
4T1 cells
  pIC50: ~5.60
E0771 tumors [6]
  mice showing small tumors seven days after the second implantation: two of the seven
IDO-GFP fusion protein; 5 μM EnnA, 6 h
  IDO-GFP green fluorescence: dramatic loss
IDO-GFP fusion protein; early time point (6 h)
  cell death: No significant cell death
E0771 murine cells
  autophagy: induces autophagy
